The results in this text go back to US8129371B2, “Thienopyrimidine and pyrazolopyrimidine compounds and their use as mTOR kinase and PI3 kinase inhibitors” (Wyeth LLC, priority 2007, dated 2012).

The target in test [1] is T1, PI3K (Homo sapiens, UniProt P42336).
T1 construct: PI3 Kinase α IC50; other: PI3 Kinase α; other: PI3 Kinase α isoform, fluorescence polarization
The test is described as follows: Fluorescence polarization assay for PI3K. The test is classed as biochemical. As to conditions: read-out: PI3 Kinase α IC50. Here is the method: (§1) This assay is used to determine the IC50 of compounds of the present invention as it identifies inhibitors of PI3 kinase by measuring inhibition.
(§2) The assay is run by placing 5 μL of diluted enzyme per well, then 5 μL of diluted compound (or 9.5 μL enzyme then 0.5 μL compound in DMSO) is added and mixed. Then, 10 μL substrate is added to start the reaction. The samples are incubated 30-60 minutes, then the reaction is stopped by adding 20 μL stop/detector mix. PI3K is diluted with reaction buffer (e.g., 5 μL or 7.5 μL PI3K into 620 μL reaction buffer), and 5 μL of diluted enzyme is used per well. 5 μL reaction buffer or drug diluted in buffer (e.g., 4 μL/100 so final DMSO is 1% in reaction) is added to each. Pipetting up and down mixes the samples. Alternatively, the enzyme can be diluted to 1215 μL. In this case 9.8 μL is added per well and 0.2 μL compound is added in DMSO. To prepare 1 mL of substrate solution, 955 μL reaction buffer, 40 μL PIP2, and 2.5 μL ATP are mixed. 10 μL of substrate is added to each well to start the reaction.
(§3) Stop/detector mix is prepared by mixing 4 μL Red detector and 1.6 μL or 2.0 μL GST-GRP with 1 mL Stop buffer, which results in 10 nM probe and 70 nM GST-GRP). 20 μL of the stop/detector mix is added to each well to stop the reaction. The plates are read after 30-90 minutes keeping the red probe solutions dark. For the zero time point, stop/detector mix is added to the enzyme just before adding substrate. For an extra control, stop/detector mix is added to buffer (no enzyme) and substrate or to just buffer (no substrate). […] Plates are read on machines with filters for Tamra. The units are mP with no enzyme controls reading app 190-220 mP units. Fully active enzyme reduces fluorescence polarization down to 70-100 mP after 30 minutes.
A general note: In fluorescence polarisation assays a small probe gives low polarisation when free and higher when bound to something large.

In test [2] the target is T2, PI3K (Homo sapiens, UniProt P48736).
T2 construct: PI3 Kinase γ IC50; other: PI3 Kinase γ; other: PI3 Kinase γ isoform, fluorescence polarization
T2 sequence (P48736 whole entry, canonical isoform): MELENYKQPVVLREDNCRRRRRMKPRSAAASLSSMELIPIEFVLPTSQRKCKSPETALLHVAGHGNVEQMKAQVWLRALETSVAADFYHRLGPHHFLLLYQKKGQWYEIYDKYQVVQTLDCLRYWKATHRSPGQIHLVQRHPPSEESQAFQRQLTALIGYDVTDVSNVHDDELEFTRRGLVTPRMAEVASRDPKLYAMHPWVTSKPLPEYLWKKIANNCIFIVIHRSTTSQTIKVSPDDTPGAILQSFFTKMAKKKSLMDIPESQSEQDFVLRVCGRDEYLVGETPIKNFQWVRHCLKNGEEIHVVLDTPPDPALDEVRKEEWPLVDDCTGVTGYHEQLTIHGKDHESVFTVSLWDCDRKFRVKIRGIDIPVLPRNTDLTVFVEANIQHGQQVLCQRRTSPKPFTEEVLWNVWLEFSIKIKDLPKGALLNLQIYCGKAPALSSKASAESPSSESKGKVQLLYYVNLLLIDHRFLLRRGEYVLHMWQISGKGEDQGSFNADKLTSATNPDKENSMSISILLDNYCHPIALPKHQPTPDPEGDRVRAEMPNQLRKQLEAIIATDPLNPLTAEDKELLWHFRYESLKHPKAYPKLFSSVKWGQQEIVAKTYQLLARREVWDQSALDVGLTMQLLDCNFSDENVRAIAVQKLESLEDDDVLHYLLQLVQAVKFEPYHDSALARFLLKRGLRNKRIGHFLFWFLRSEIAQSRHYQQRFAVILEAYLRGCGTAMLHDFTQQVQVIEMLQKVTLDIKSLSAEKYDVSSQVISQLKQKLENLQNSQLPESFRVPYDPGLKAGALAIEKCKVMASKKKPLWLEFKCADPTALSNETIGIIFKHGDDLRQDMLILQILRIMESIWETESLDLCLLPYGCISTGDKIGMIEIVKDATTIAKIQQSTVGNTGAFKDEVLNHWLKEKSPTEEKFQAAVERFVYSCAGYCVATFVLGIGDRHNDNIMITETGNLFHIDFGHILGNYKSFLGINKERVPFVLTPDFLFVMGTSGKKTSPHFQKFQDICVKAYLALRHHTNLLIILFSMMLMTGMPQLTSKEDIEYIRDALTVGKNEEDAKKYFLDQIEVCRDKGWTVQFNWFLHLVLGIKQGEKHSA
The test is described as follows: Fluorescence polarization assay for PI3K. The test is classed as biochemical. Conditions: read-out: PI3 Kinase γ IC50. Here is the method: as §1, §2, §3

A further test deals with T3, Human mTOR (FLAG-TOR) (Homo sapiens, UniProt P42345).
T3 construct: FLAG
In words: Human mTOR kinase assay with purified enzyme, DELFIA format. The test is classed as biochemical. Here is the method:
Enzymes are first diluted in kinase assay buffer (10 mM HEPES (pH 7.4), 50 mM NaCl, 50 mM β-glycerophosphate, 10 mM MnCl2, 0.5 mM DTT, 0.25 mM microcystin LR, and 100 mg/mL BSA). To each well, 12 μL of the diluted enzyme is mixed briefly with 0.5 μL test inhibitor or control vehicle dimethylsulfoxide (DMSO). […] The reaction plate is incubated for 2 hours (linear at 1-6 hours) at room temperature with gentle shaking and then terminated by adding 25 μL Stop buffer (20 mM HEPES (pH 7.4), 20 mM EDTA, 20 mM EGTA). […] The DELFIA Assay buffer and Enhancement solution can be purchased from PerkinElmer. 45 μL of the terminated kinase reaction mixture is transferred to a MaxiSorp plate (Nunc) containing 55 μL PBS. The His6-S6K is allowed to attach for 2 hours after which the wells are aspirated and washed once with PBS. 100 μL of DELFIA Assay buffer with 40 ng/mL Eu—P(T389)-S6K antibody is added. The antibody binding is continued for 1 hour with gentle agitation. The wells are then aspirated and washed 4 times with PBS containing 0.05% Tween-20 (PBST). 100 μL of DELFIA Enhancement solution is added to each well and the plates are read in a PerkinElmer Victor model plate reader. Data obtained is used to calculate enzymatic activity and enzyme inhibition by potential inhibitors.

Another test concerns breast line MDA468. The test is described as follows: In vitro cell culture growth assay (MTS), MDA468. The test is classed as cell-based. Conditions: Homo sapiens, 72 h, MDA468 cells, three days after drug treatment. Here is the method:
Human tumor cell lines used include prostate lines LNCap and PC3MM2, breast lines MDA468, MCF7, renal line HTB44 (A498), colon line HCT116, and ovarian line OVCAR3. Cells were plated in 96-well culture plates. One day following plating, the inhibitors were added to cells. Three days after drug treatment, viable cell densities were determined by metabolic conversion (by viable cells) of the dye MTS, a well-established cell proliferation assay. The assays were performed using an assay kit purchased from Promega Corp. (Madison, Wis.) following the protocol supplied with the kit. The MTS assay results were read in a 96-well plate reader by measuring absorbance at 490 nm. The effect of each treatment was calculated as percent of control growth relative to the vehicle-treated cells grown in the same culture plate.

Where [3] appears, read: PI3 Kinase α isoform, fluorescence polarization.
Where [4] appears, read: PI3 Kinase γ isoform, fluorescence polarization.
Setting [5] is: purified human mTOR enzyme, DELFIA format.

What is called IC50 is the concentration that gives 50% inhibition.

Where two headings read alike, the source gives them in different places. Bounds are passed on as bounds.

T1 sequence (P42336 whole entry, canonical isoform): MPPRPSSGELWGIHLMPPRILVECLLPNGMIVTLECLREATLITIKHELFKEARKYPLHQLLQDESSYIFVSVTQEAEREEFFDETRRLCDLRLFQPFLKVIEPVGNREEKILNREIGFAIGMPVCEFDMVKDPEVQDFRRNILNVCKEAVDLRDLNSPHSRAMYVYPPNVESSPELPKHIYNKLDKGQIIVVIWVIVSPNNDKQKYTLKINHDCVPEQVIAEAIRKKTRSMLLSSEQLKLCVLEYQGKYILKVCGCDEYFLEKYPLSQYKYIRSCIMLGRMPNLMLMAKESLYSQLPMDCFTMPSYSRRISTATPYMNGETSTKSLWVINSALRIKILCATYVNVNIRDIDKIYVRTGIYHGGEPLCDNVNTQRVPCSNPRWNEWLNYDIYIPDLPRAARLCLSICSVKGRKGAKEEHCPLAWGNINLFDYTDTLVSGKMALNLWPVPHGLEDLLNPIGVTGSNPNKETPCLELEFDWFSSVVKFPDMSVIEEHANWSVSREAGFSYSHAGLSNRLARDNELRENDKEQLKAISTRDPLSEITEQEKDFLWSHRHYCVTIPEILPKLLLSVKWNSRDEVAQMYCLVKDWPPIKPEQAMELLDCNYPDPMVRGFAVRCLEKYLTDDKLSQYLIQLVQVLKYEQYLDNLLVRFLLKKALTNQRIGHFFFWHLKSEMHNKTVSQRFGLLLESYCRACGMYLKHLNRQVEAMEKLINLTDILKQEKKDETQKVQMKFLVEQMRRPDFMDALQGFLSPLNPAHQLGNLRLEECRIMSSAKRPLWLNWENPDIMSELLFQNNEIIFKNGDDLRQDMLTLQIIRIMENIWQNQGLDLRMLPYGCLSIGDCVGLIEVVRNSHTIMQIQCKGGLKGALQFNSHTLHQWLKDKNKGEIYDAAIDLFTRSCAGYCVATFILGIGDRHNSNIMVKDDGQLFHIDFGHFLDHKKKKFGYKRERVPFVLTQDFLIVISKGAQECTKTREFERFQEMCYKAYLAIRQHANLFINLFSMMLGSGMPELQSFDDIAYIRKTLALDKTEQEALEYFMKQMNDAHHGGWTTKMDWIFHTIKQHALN

For the compound `O=C(Nc1ccncc1)Nc1ccc(-c2nc(N3CC4CCC(C3)O4)c3cnn(CC(F)(F)F)c3n2)cc1` [Example 5, 1-{4-[4-(8-oxa-3-azabicyclo[3.2.1]oct-3-yl)-1-(2,2,2-trifluoroethyl)-1H-pyrazolo[3,4-d]pyrimidin-6-yl]phenyl}-3-pyridin-4-ylurea], the IC50 at PI3K [1] (PI3 Kinase α) amounted to 168 nM; at PI3K [2] (PI3 Kinase γ) it was 1030 nM; against Human mTOR (FLAG-TOR) it was 0.19 nM.

Take `CNC(=O)Nc1ccc(-c2nc(N3CC4CCC(C3)O4)c3cnn(C4CCC5(CC4)OCCO5)c3n2)cc1` [Example 62, 1-{4-[1-(1,4-dioxaspiro[4.5]dec-8-yl)-4-(8-oxa-3-azabicyclo[3.2.1]oct-3-yl)-1H-pyrazolo[3,4-d]pyrimidin-6-yl]phenyl}-3-methylurea]: the concentration for half-maximal inhibition (IC50) is 2010 nM on PI3K [1] (PI3 Kinase α), over 10000 nM on PI3K [2] (PI3 Kinase γ) and 0.16 nM against Human mTOR (FLAG-TOR).

Regarding `CNC(=O)Nc1ccc(-c2nc(N3CC4CCC(C3)O4)c3cnn(C4CCC(=O)CC4)c3n2)cc1` [Example 63, 1-methyl-3-{4-[4-(8-oxa-3-azabicyclo[3.2.1]oct-3-yl)-1-(4-oxocyclohexyl)-1H-pyrazolo[3,4-d]pyrimidin-6-yl]phenyl}urea], the IC50 was over 10000 nM at PI3K [2] (PI3 Kinase γ) and 0.23 nM against Human mTOR (FLAG-TOR).

`CNC(=O)Nc1ccc(-c2nc(N3CC4CCC(C3)O4)c3cnn(C4CCC(O)CC4)c3n2)cc1` (stereo not drawn) [Example 64, 1-{4-[1-(4-hydroxycyclohexyl)-4-(8-oxa-3-azabicyclo[3.2.1]oct-3-yl)-1H-pyrazolo[3,4-d]pyrimidin-6-yl]phenyl}-3-methylurea]: the IC50 on PI3K [1] (PI3 Kinase α) turned out to be 1310 nM; at PI3K [2] (PI3 Kinase γ), 5000 nM; against Human mTOR (FLAG-TOR), 0.21 nM.

For `CC(C)C(=O)N1CCC(n2ncc3c(N4CC5CCC(C4)O5)nc(-c4ccc(N)cc4)nc32)CC1` [Example 80, 4-[1-(1-isobutyrylpiperidin-4-yl)-4-(8-oxa-3-azabicyclo[3.2.1]oct-3-yl)-1H-pyrazolo[3,4-d]pyrimidin-6-yl]aniline], the concentration for half-maximal inhibition (IC50) is over 10000 nM at PI3K [1] (PI3 Kinase α), over 10000 nM at PI3K [2] (PI3 Kinase γ) and 100 nM on Human mTOR (FLAG-TOR).

Consider `O=C(Nc1ccncc1)Nc1ccc(-c2nc(N3CC4CCC(C3)O4)c3cnn(CC(F)(F)F)c3n2)cc1` [Example 104, 1-{4-[4-(8-oxa-3-azabicyclo[3.2.1]oct-3-yl)-1-(2,2,2-trifluoroethyl)-1H-pyrazolo[3,4-d]pyrimidin-6-yl]phenyl}-3-pyridin-4-ylurea], for which the half-inhibitory concentration (IC50) at PI3K [1] (PI3 Kinase α) stood at 201 nM; at PI3K [2] (PI3 Kinase γ), 695 nM; against Human mTOR (FLAG-TOR), 0.16 nM.

`CNC(=O)Nc1ccc(-c2nc(N3CC4CCC(C3)O4)c3cnn(C4CCC(O)CC4)c3n2)cc1` (stereo not drawn) [Example 108, 1-(4-(4-(8-oxa-3-azabicyclo[3.2.1]octan-3-yl)-1-((1r,4r)-4-hydroxycyclohexyl)-1H-pyrazolo[3,4-d]pyrimidin-6-yl)phenyl)-3-methylurea]: the IC50 was 882 nM on PI3K [1] (PI3 Kinase α), over 10000 nM on PI3K [2] (PI3 Kinase γ) and 0.24 nM on Human mTOR (FLAG-TOR).

For `CNC(=O)Nc1ccc(-c2nc(N3CC4CCC(C3)O4)c3cnn([C@H]4CC[C@@H](O)CC4)c3n2)cc1` [Example 109, 1-(4-(4-(8-oxa-3-azabicyclo[3.2.1]octan-3-yl)-1-((1s,4s)-4-hydroxycyclohexyl)-1H-pyrazolo[3,4-d]pyrimidin-6-yl)phenyl)-3-methylurea], the IC50 on PI3K [1] (PI3 Kinase α) is 227 nM; on PI3K [2] (PI3 Kinase γ), over 10000 nM; against Human mTOR (FLAG-TOR), 0.3 nM.

For `CCNC(=O)Nc1ccc(-c2nc(N3CC4CCC(C3)O4)c3cnn(C4CCC(OC)CC4)c3n2)cc1` (stereo not drawn) [Example 301, 1-ethyl-3-{4-[1-(4-methoxycyclohexyl)-4-(8-oxa-3-azabicyclo[3.2.1]oct-3-yl)-1H-pyrazolo[3,4-d]pyrimidin-6-yl]phenyl}urea], the IC50 is 2030 nM on PI3K [1] (setting [3]), over 10000 nM at PI3K [2] (setting [4]) and 0.335 nM at Human mTOR (FLAG-TOR) (setting [5]).

Regarding `CNC(=O)Nc1ccc(-c2nc(N3CC4CCC(C3)O4)c3cnn(C4CCC(N5CCN(C)CC5)CC4)c3n2)cc1` (stereo not drawn) [Example 329, 1-methyl-3-(4-{1-[4-(4-methylpiperazin-1-yl)cyclohexyl]-4-(8-oxa-3-azabicyclo[3.2.1]oct-3-yl)-1H-pyrazolo[3,4-d]pyrimidin-6-yl}phenyl)urea], the IC50 worked out at 357 nM on PI3K [1] (setting [3]), 4350 nM on PI3K [2] (setting [4]) and 1.75 nM at Human mTOR (FLAG-TOR) (setting [5]).

Turning to `CCNC(=O)Nc1ccc(-c2nc(N3CC4CCC(C3)O4)c3sccc3n2)cc1` [Example 407, 1-ethyl-3-{4-[4-(8-oxa-3-azabicyclo[3.2.1]oct-3-yl)thieno[3,2-d]pyrimidin-2-yl]phenyl}urea], the half-maximal inhibitory concentration (IC50) in the test on breast line MDA468 is 250 nM; at PI3K [1] (setting [3]) it was 1260 nM; at PI3K [2] (setting [4]), over 10000 nM; against Human mTOR (FLAG-TOR) (setting [5]) it was 0.76 nM.

Regarding `O=C(NCCO)Nc1ccc(-c2nc(N3CC4CCC(C3)O4)c3sccc3n2)cc1` [Example 409, 1-(2-hydroxyethyl)-3-{4-[4-(8-oxa-3-azabicyclo[3.2.1]oct-3-yl)thieno[3,2-d]pyrimidin-2-yl]phenyl}urea], the IC50 in the test on breast line MDA468 is 475 nM; on PI3K [1] (setting [3]) it was 324 nM; at PI3K [2] (setting [4]), at least 10000 nM; at Human mTOR (FLAG-TOR) (setting [5]) it was 0.31 nM.

As for `O=C(Nc1ccccc1)Nc1ccc(-c2nc(N3CC4CCC(C3)O4)c3sccc3n2)cc1` [Example 411, 1-{4-[4-(8-oxa-3-azabicyclo[3.2.1]oct-3-yl)thieno[3,2-d]pyrimidin-2-yl]phenyl}-3-phenylurea], the IC50 in the test with breast line MDA468 came out at 380 nM; on PI3K [1] (setting [3]) it was 82 nM; at PI3K [2] (setting [4]), 2190 nM; against Human mTOR (FLAG-TOR) (setting [5]), 1.3 nM.

For `Nc1ccc(-c2nc(N3CC4CCC(C3)O4)c3sccc3n2)cc1` [Example 414, 4-[4-(8-oxa-3-azabicyclo[3.2.1]oct-3-yl)thieno[3,2-d]pyrimidin-2-yl]aniline], the values for the 50% inhibitory concentration (IC50) in the test on breast line MDA468, on PI3K [2] (setting [4]) and on Human mTOR (FLAG-TOR) (setting [5]) were 30000 nM, over 10000 nM and 100 nM, respectively.

For the compound `Oc1cccc(-c2nc(N3CC4CCC(C3)O4)c3sccc3n2)c1` [Example 417, 3-[4-(8-oxa-3-azabicyclo[3.2.1]oct-3-yl)thieno[3,2-d]pyrimidin-2-yl]phenol], the half-inhibitory concentration (IC50) in the test on breast line MDA468 is 7800 nM; on PI3K [1] (setting [3]), 399 nM; on PI3K [2] (setting [4]) it was over 10000 nM; on Human mTOR (FLAG-TOR) (setting [5]), 61 nM.

Regarding “N-{4-[({4-[1-methyl-4-(8-oxa-3-azabicyclo[3.2.1]oct-3-yl)-1H-pyrazolo[3,4-d]pyrimidin-6-yl]phenyl}carbamoyl)amino]phenyl}acetamide [Example 259]”, the figures for the IC50 on PI3K [1] (PI3 Kinase α), on PI3K [2] (PI3 Kinase γ) and on Human mTOR (FLAG-TOR) were 1050 nM, 2720 nM and 2.4 nM, respectively.

As to “N~2~,N~2~-dimethyl-N-{4-[({4-[1-methyl-4-(8-oxa-3-azabicyclo[3.2.1]oct-3-yl)-1H-pyrazolo[3,4-d]pyrimidin-6-yl]phenyl}carbamoyl)amino]phenyl}glycinamide [Example 258]”, the IC50 on PI3K [1] (PI3 Kinase α) came to 346 nM; at PI3K [2] (PI3 Kinase γ), 1410 nM; against Human mTOR (FLAG-TOR) it was 3.95 nM.
